Read-outs that look alike come from different tables or passages of the source. Where no end group is shown, it is not given here.
How the values were obtained:
E. coli (ATCC BAA-2340) = type: cell-based, Escherichia coli; conditions: ATCC BAA-2340
Protocol: (§1) The antimicrobial activity of the peptides was determined through the minimum inhibitory concentrations (MICs) and the minimum bactericidal concentration (MBCs) using the broth-dilution method in a 96-well plate, as described in the previous study. Six bacteria, including the Gram-positive bacteria, S. aureus (ATCC CRM 6538), MRSA (ATCC CRM 12493) and E. faecalis (NCTC 12697), the Gram-negative bacteria, E. coli (ATCC CRM 8739), K. pneumoniae (ATCC CRM 43816) and P. aeruginosa (ATCC CRM 9027), the yeast, C. albicans (ATCC CRM 10231) and clinical isolates, S. aureus (B042 V2E1 A), MRSA (B038 V1S1 A), E. coli (ATCC BAA-2340) and K. pneumoniae (ATCC BAA-1705) were used in these assays to evaluate the antimicrobial potency of the two peptides by determining their MICs and MBCs. All bacteria were cultured in MHB and the yeast, C. albicans was cultured in YPD broth overnight. Then, the microorganisms were sub-cultured and diluted to the final concentration of 2 × 10^5 CFU/mL to 5 × 10^5 CFU/mL. The Norfloxacin and amphotericin B were used as positive controls for the bacteria and yeast, respectively. The assay was repeated three times, with five replicates at each time.

E. coli (ATCC CRM 8739) [1] = type: cell-based, Escherichia coli; conditions: ATCC CRM 8739
Protocol: as §1

E. faecalis (NCTC 12697) [2] = type: cell-based, Enterococcus faecalis; conditions: NCTC 12697
Protocol: as §1

[3] = tested on: S. aureus (ATCC CRM 6538); type: cell-based, Staphylococcus aureus; conditions: ATCC CRM 6538, 24 h
Protocol: (§2) The MBIC and MBEC assays were performed to measure the inhibition and eradication of bacterial biofilm in the presence of different concentrations of peptides. Gram-positive bacteria were inoculated in Luria–Bertani (LB) broth at 37 °C overnight whereas Gram-negative bacteria were inoculated in tryptic soy broth (TSB), and then sub-cultured until reaching the logarithmic growth phase by measuring the OD values at a wavelength of 550nm. For the MBIC assay, 99 µL of diluted bacterial suspension (5 × 10^5 CFU/mL) was mixed with 1 µL of prepared peptide solutions in the wells of a round-bottomed 96-well plate, achieving the final concentrations from 512 to 1 µM, and then incubated at 37 °C for 24 h in a shaking incubator at 200 revolutions per minute (rpm). After this, the plate was washed twice by PBS and fixed with methanol for 30 min. For MBEC assay, 100 µL of diluted bacterial suspension (5 × 10^5 CFU/mL) was seeded into a round-bottomed 96-well plate and incubated at 37 °C for 24 h in a shaking incubator at 200 rpm to obtain mature biofilm. After this, plates were washed twice by PBS and incubated with different concentrations of peptide solution from 512 to 1 µM at 37 °C for 24 h. Afterwards, the plate was washed twice with PBS and fixed with methanol for 30 min. Then, both MBIC and MBEC plates were stained by 130 μL of 0.1% (g/v) crystal violet solutions for 30 min and washed with PBS until no apparent staining was observed. Evaporating crystal violet stains were dissolved by 33% (v/v) acetic acid, and the absorbance values were measured by a Synergy HT Microplate Reader (BioTek, Minneapolis, MN, USA) set to 595 nm. The minimum concentration that inhibited the formation of biofilm was defined when compared to the negative control group, as the MBIC. The minimum concentration that eradicated the biofilm was defined, when compared to the negative control group, as the MBEC. The biofilm assays were performed in triplicate.

E. faecalis (NCTC 12697) [4] = type: cell-based, Enterococcus faecalis; conditions: NCTC 12697, 24 h
Protocol: as §2

[5] = tested on: C. albicans (ATCC CRM 10231); type: cell-based, Candida albicans; conditions: ATCC CRM 10231
Protocol: as §1

MRSA (B038 V1S1 A) = type: cell-based, methicillin-resistant S. aureus; conditions: B038 V1S1 A
Protocol: as §1

MRSA (ATCC CRM 12493) [6] = type: cell-based, methicillin-resistant S. aureus; conditions: ATCC CRM 12493
Protocol: as §1

[7] = tested on: K. pneumoniae (ATCC BAA-1705); type: cell-based, Klebsiella pneumoniae; conditions: ATCC BAA-1705
Protocol: as §1

[8] = tested on: K. pneumoniae (ATCC CRM 43816); type: cell-based, Klebsiella pneumoniae; conditions: ATCC CRM 43816
Protocol: as §1

[9] = tested on: P. aeruginosa (ATCC CRM 9027); type: cell-based, Pseudomonas aeruginosa; conditions: ATCC CRM 9027, 24 h
Protocol: as §2

[10] = tested on: P. aeruginosa (ATCC CRM 9027); type: cell-based, Pseudomonas aeruginosa; conditions: ATCC CRM 9027
Protocol: as §1

[11] = tested on: K. pneumoniae (ATCC CRM 43816); type: cell-based, Klebsiella pneumoniae; conditions: ATCC CRM 43816, 24 h
Protocol: as §2

MRSA (ATCC CRM 12493) [12] = type: cell-based, methicillin-resistant S. aureus; conditions: ATCC CRM 12493, 24 h
Protocol: as §2

S. aureus (B042 V2E1 A) = type: cell-based, Staphylococcus aureus; conditions: B042 V2E1 A
Protocol: as §1

[13] = tested on: S. aureus (ATCC CRM 6538); type: cell-based, Staphylococcus aureus; conditions: ATCC CRM 6538
Protocol: as §1

horse erythrocytes = type: cell-based
Protocol: The haemolysis assays were performed by incubating prewashed erythrocyte suspension obtained from fresh defibrinated horse blood (TCS Biosciences Ltd., Buckingham, UK) with a range of peptides at final concentrations from 512 to 1 μM, for 2 h at 37 °C. The red cell suspensions were washed with phosphate-buffered saline (PBS) until the supernatant was clear and then diluted with PBS to form a 2% cell suspension. Peptides were 2-fold diluted by the 2% cell suspension to reach the final concentration range from 512 to 1 μM. The haemolysis of the cell suspensions with either 1% (v/v) Triton X-100 or PBS, were considered as positive controls and negative controls, respectively. After incubation, the extent of haemolysis was determined by measuring the absorbance of the supernatant from each sample at 570 nm with a Synergy HT plate reader (BioTek, USA).
Data were analysed using Prism (Version 8.2.1; GraphPad Software, Inc, San Diego, CA, USA). Error bars in the graphs represented standard errors of means (SEM) of nine repeats from three independent tests. The statistical significance was calculated using two-way ANOVA and is indicated as ns (non-significant difference), * (p < 0.05), ** (p < 0.01), *** (p < 0.001), ****(p < 0.0001). The HC10, HC50 and IC50 values were calculated using the online tool AAT Bioquest (https://www.aatbio.com/index.html, accessed on 6 May 2022).

E. coli (ATCC CRM 8739) [14] = type: cell-based, Escherichia coli; conditions: ATCC CRM 8739, 24 h
Protocol: as §2

Substance | MBC (E. coli (ATCC BAA-2340)) [µM] | MIC (E. coli (ATCC BAA-2340)) [µM] | MBC (E. coli (ATCC CRM 8739) [1]) [µM] | MIC (E. coli (ATCC CRM 8739) [1]) [µM] | MBC (E. faecalis (NCTC 12697) [2]) [µM] | MIC (E. faecalis (NCTC 12697) [2]) [µM] | MBEC [3] [µM] | MBIC [3] [µM] | MBEC (E. faecalis (NCTC 12697) [4]) [µM] | MBIC (E. faecalis (NCTC 12697) [4]) [µM] | MBC [5] [µM] | MIC [5] [µM] | MBC (MRSA (B038 V1S1 A)) [µM] | MIC (MRSA (B038 V1S1 A)) [µM] | MBC (MRSA (ATCC CRM 12493) [6]) [µM] | MIC (MRSA (ATCC CRM 12493) [6]) [µM] | MBC [7] [µM] | MIC [7] [µM] | MBC [8] [µM] | MIC [8] [µM] | also measured
FVNVLDKI-NH2 [FV-8, FVNVLDKI-NH2] | >512 | >512 | >512 | >512 | >512 | >512 | >512 | >512 | >512 | >512 | >512 | >512 | >512 | >512 | >512 | >512 | >512 | >512 | >512 | >512 | MBEC [9]: >512 µM; MBIC [9]: >512 µM; MBC [10]: >512 µM; MIC [10]: >512 µM; MBEC [11]: >512 µM; MBIC [11]: >512 µM; MBEC (MRSA (ATCC CRM 12493) [12]): >512 µM; MBIC (MRSA (ATCC CRM 12493) [12]): >512 µM; MBC (S. aureus (B042 V2E1 A)): >512 µM; MIC (S. aureus (B042 V2E1 A)): >512 µM; MBC [13]: >512 µM; MIC [13]: >512 µM; HC10 (horse erythrocytes): 504.21 µM; HC10 (horse erythrocytes; red cells of horse, 2 h): 583.6 µM; MBEC (E. coli (ATCC CRM 8739) [14]): >512 µM; MBIC (E. coli (ATCC CRM 8739) [14]): >512 µM
FVNVLDKIR-NH2 [FV-9, FVNVLDKIR-NH2] | >512 | >512 | >512 | >512 | >512 | >512 | >512 | >512 | >512 | >512 | >512 | >512 | >512 | >512 | >512 | >512 | >512 | >512 | >512 | >512 | MBEC [9]: >512 µM; MBIC [9]: >512 µM; MBC [10]: >512 µM; MIC [10]: >512 µM; MBEC [11]: >512 µM; MBIC [11]: >512 µM; MBEC (MRSA (ATCC CRM 12493) [12]): >512 µM; MBIC (MRSA (ATCC CRM 12493) [12]): >512 µM; MBC (S. aureus (B042 V2E1 A)): >512 µM; MIC (S. aureus (B042 V2E1 A)): >512 µM; MBC [13]: >512 µM; MIC [13]: >512 µM; HC10 (horse erythrocytes): 504.21 µM; HC10 (horse erythrocytes; red cells of horse, 2 h): 504.2 µM; MBEC (E. coli (ATCC CRM 8739) [14]): >512 µM; MBIC (E. coli (ATCC CRM 8739) [14]): >512 µM

Source: paper PMC9405102, “Targeted Modification and Structure-Activity Study of GL-29, an Analogue of the Antimicrobial Peptide Palustrin-2ISb” (Antibiotics, 2022)
